Test results as given in patent US6692443B2, “Systems and methods for investigating blood flow” (New Health Sciences, Inc., priority 2000, dated 2004).

Test system: cerebral vessels
Experimental: A person with a history of hypertension experiences a first stroke in the left middle cerebral artery resulting in deficits in the right hand, leg, and some deficits in motor speech. These are the symptoms upon presentation in the neurological clinic. Transcranial Doppler analysis of all cerebral vessels is performed in addition to analyzing the common carotid artery and the internal carotid artery.
The physician considers prescription of Plavix together with a calcium channel blocker. Transcranial Doppler analysis was performed at monthly intervals. […] The physician subsequently administers a higher dose. Again, transcranial Doppler analysis is performed on all cerebral vessels.

COC(=O)[C@H](c1ccccc1Cl)N1CCc2sccc2C1 [Plavix]
changes in the individual cerebral vessels (transcranial Doppler) (person after first stroke, Plavix +/− calcium channel blocker, initial dose, analysis at monthly intervals): no effect on the cerebral vessels
auto-regulation curve (transcranial Doppler) (same patient, higher dose): left-shifts toward normal
pulsatility index of the vessel studied (transcranial Doppler) (same patient, higher dose): decreases
